Reference: patent publication US6645715B1, “Artificial cornea” (University of Ottawa, priority 1998, dated 2003)

How the values were obtained:
[1] = tested on: corneal epithelial cell lines and primary epithelial cells; experiment: RT-PCR of mRNA expression in corneal epithelial cells after SDS exposure; type: cell-based, human
Description: Corneal epithelial cell lines were exposed to sodium dodecyl sulfate (SDS) to characterise the changes in mRNA expression of early response genes such as c-fos and c-jun, cytokines probably involved with corneal wound healing such as interleukins (IL-1a and IL-6), basic fibroblast growth factor (bFGF), vascular endothelial growth factor (VEGF) and epidermal growth factor (EGF), and matrix molecules that are elaborated during healing such as collagens types I, III and V. Reverse transcription-polymerase chain reaction (RT-PCR) was used to examine changes in expression of the above genes in corneal epithelial cell lines compared to primary cells, and in artificial corneas compared to human corneas from the eye bank after exposure to a detergent SDS. The cells were exposed to 0.02% SDS in M199 for 2 minutes. Corneas were treated with 5% SDS in M199. Controls were dosed with M199 only. RT-PCR was performed on RNA from cells and corneas obtained at different time points after injury. Semi-quantitative analyses were conducted by introducing the housekeeping gene, glyceraldehyde-3-phosphate dehydrogenase (GAPDH) as an internal control and by Southern analysis. PCR products were sequenced to confirm their identity. Baseline levels of the 10 mRNAs examined were established in control epithelial cells and corneas (n> or =6 for each time point). […] However, changes in MRNA expression for bFGF, VEGF, EGF and collagen III were non-significant.

reconstructed corneas [2] = experiment: RT-PCR of gene expression in SDS-treated reconstructed corneas; type: cell-based, human; conditions: 5% SDS in M199; reconstructed whole corneas
Method: Band intensities for the indicated genes were quantitated by a phosphoimager and were divided by the intensity of the corresponding GAPDH band. Corneas were treated with 5% SDS in medium for 1 or 3 minutes, then washed twice with medium. Total RNA was extracted at 1 hour after the SDS treatment, and RT-PCR was carried out for specific primers for various genes. Reverse transcription-polymerase chain reaction (RT-PCR) was used to examine changes in expression of the above genes in corneal epithelial cell lines compared to primary cells, and in artificial corneas compared to human corneas from the eye bank after exposure to a detergent SDS. The cells were exposed to 0.02% SDS in M199 for 2 minutes. Corneas were treated with 5% SDS in M199. Controls were dosed with M199 only. RT-PCR was performed on RNA from cells and corneas obtained at different time points after injury. Semi-quantitative analyses were conducted by introducing the housekeeping gene, glyceraldehyde-3-phosphate dehydrogenase (GAPDH) as an internal control and by Southern analysis. PCR products were sequenced to confirm their identity. […] However, these changes were more marked in the reconstructed whole corneas than in the epithelial monolayers.

reconstructed corneas [3] = experiment: Responses of reconstructed corneas to aqueous test chemicals (wound, corneal transparency); type: cell-based, human; conditions: 10% SDS, 0.01% benzalkonium chloride solution
Method: Each cornea was exposed centrally to 100 μl of the test chemical for 10 min, after which the chemical was washed off with saline and the corneas were re-cultured for a further 3 days. The saline-treated cornea served as the control.

human eye bank corneas = experiment: RT-PCR of gene expression in human eye bank corneas after SDS exposure; type: cell-based; conditions: 5% SDS in M199
Method: Reverse transcription-polymerase chain reaction (RT-PCR) was used to examine changes in expression of the above genes in corneal epithelial cell lines compared to primary cells, and in artificial corneas compared to human corneas from the eye bank after exposure to a detergent SDS. The cells were exposed to 0.02% SDS in M199 for 2 minutes. Corneas were treated with 5% SDS in M199. Controls were dosed with M199 only. RT-PCR was performed on RNA from cells and corneas obtained at different time points after injury. Semi-quantitative analyses were conducted by introducing the housekeeping gene, glyceraldehyde-3-phosphate dehydrogenase (GAPDH) as an internal control and by Southern analysis. PCR products were sequenced to confirm their identity.

reconstructed corneas [4] = experiment: Live-dead staining of reconstructed corneas after chemical exposure; type: cell-based, human; conditions: SDS; 0.01% benzalkonium chloride solution
Description: Live cells are green, while dying or dead cells are orange-red. […] C.

[5] = 0.02% SDS in M199 for 2 minutes, within 1 hour of injury, primary epithelial cells and cell lines

CCCCCCCCCCCCOS(=O)(=O)[O-].[Na+] [SDS, sodium dodecyl sulfate]
IL-1a mRNA expression ([1]; 0.02% SDS for 2 minutes): increased expression | IL-6 mRNA expression ([1]; 0.02% SDS for 2 minutes): increased expression | changes in mRNA expression for EGF ([1]; 0.02% SDS for 2 minutes): non-significant | changes in mRNA expression for VEGF ([1]; 0.02% SDS for 2 minutes): non-significant | changes in mRNA expression for bFGF ([1]; 0.02% SDS for 2 minutes): non-significant | changes in mRNA expression for collagen III ([1]; 0.02% SDS for 2 minutes): non-significant | collagen I mRNA expression ([1]; 0.02% SDS for 2 minutes): increased expression | collagen V mRNA expression ([1]; 0.02% SDS for 2 minutes): increased expression | expression of c-fos, time course ([1]; 0.02% SDS for 2 minutes, 24 hours): returned to baseline levels by the end of 24 hours | expression of c-jun, time course ([1]; 0.02% SDS for 2 minutes, until day 6): remained high until day 6 after injury | expression of c-fos [1, 5]: significantly increased | expression of c-jun [1, 5]: significantly increased | extent of changes in gene expression versus epithelial monolayers (reconstructed corneas [2]): more marked | wound / change of corneal transparency (reconstructed corneas [3]; 100 μl centrally for 10 min, washed off with saline, re-cultured 3 days): caused wounds to the centre of the cornea | healing of the wound (reconstructed corneas [3]; 100 μl for 10 min, re-cultured a further 3 days): still unhealed | changes in gene expression (human eye bank corneas): responded to SDS exposure with changes in gene expression | live-dead staining, epithelial cells (reconstructed corneas [4]): mostly dead and dying cells | live-dead staining, stromal cells (reconstructed corneas [4]): orange-red dead or dying cells | penetration into the stromal compartment (reconstructed corneas [4]): penetration of the detergent into the stroma
